In paper PMC5573973 (Advanced Synthesis & Catalysis, 2017):
One block for each molecule: values may come before it.

Key:
[1] = biological target: T1, PAL from Petroselinum crispum (PcPAL) (Petroselinum crispum, UniProt P24481); experiment: Steady-state inhibition kinetics of PcPAL-catalyzed deamination of L-Phe; type: biochemical
Y110F mutant of PcPAL = Y110F mutant of PcPAL (Petroselinum crispum, UniProt P24481, Y110F); experiment: Isothermal titration calorimetry with Y110F-PcPAL; type: binding; conditions: for Kd: PcPAL_Y110F K d, ITC, pH 8.0, 30 °C
PAL [2] = conditions: cited from earlier work
PAL [3] = conditions: cited from earlier work; remark: listed apart in the source
[4] = biological target: T1, PAL from Petroselinum crispum (PcPAL); conditions: with PcPAL; cited from earlier work
Pseudomonas putida HAL = conditions: 9 mM, incubation for 120 min in the presence of oxygen; cited from earlier work

Ki [1]: > 1000 µM | Type of inhibition ([1]; best fitting inhibition model to the experimental data): No inh. | Inhibition with PcPAL ([1]; up to 1 mM concentration): no measurable inhibition
SMILES: NC(C1(c2ccccc2)CC1)P(=O)(O)O.O (racemic) [(±)‐6, 1-Amino-1-(1-phenylcyclopropyl)methyl-phosphonic acid hydrate]

SMILES: N[C@H](Cc1ccccc1)C(=O)O [(R)‐1, D‐phenylalanine]
Kd (Y110F mutant of PcPAL): 29.1 µM | ΔΔG (Y110F mutant of PcPAL; ΔΔG=ΔG wt−ΔG Y110F, contribution of the hydroxy group of Tyr110): -0.5 kcal/mol | Type of inhibition (PAL [2]): competitive inhibitor

SMILES: N[C@@H](Cc1ccccc1)C(=O)O [(S)‐1, L‐phenylalanine]
Rate of ammonia elimination relative to D-phenylalanine (PAL [3]): more than 4500 times | Kd (Y110F mutant of PcPAL): 23 µM

SMILES: NC1(P(=O)(O)O)Cc2ccccc2C1 [AIP, 2‐aminoindan‐2‐phosphonic acid]
Ki (PAL [2]): 0.025 µM | Slow binding behavior [4]: one‐step slow binding mechanism

SMILES: NO[C@@H](Cc1ccccc1)C(=O)O [AOPP, (S)‐2‐aminooxy‐3‐phenylpropanoic acid]
Ki (PAL [2]): 0.00038 µM

SMILES: N[C@@H](CCS)C(=O)O [L‐homocysteine]
Inhibition of HAL (Pseudomonas putida HAL): irreversibly inhibited
